Source: patent US20100120858A1, “Piperidine Derivatives” (Pfizer Inc., priority 2006, published 2010)
Counter-ions that a name gives are not always drawn.

Assays:
[1] = target: human norepinephrine transporter (Homo sapiens, UniProt P23975); assay: Human norepinephrine (hNET) receptor binding, [125I]-RTI-55; settings: membranes of HEK-293 cells transfected with human norepinephrine transporter cDNA; 50 pM [125I]-RTI-55; IC50 converted by Cheng-Prusoff
Experimental: Cell pastes of human embryonic kidney 293 (HEK-293) cells transfected with a human norepinephrine transporter cDNA were prepared. The cell pastes were resuspended in 400 to 700 mL of Krebs-N-2-hydroxyethylpiperazine-N′-2-ethanesulfonic acid (HEPES) assay buffer (25 mM HEPES, 122 mM NaCl, 3 mM KCl, 1.2 mM MgSO4, 1.3 mM CaCl2, and 11 mM glucose, pH 7.4) with a Polytron homogenizer at setting 7 for 30 seconds. Aliquots of membranes (5 mg/mL protein) were stored in liquid nitrogen until used.
The binding assay was set up in Beckman deep-well polypropylene plates with a total volume of 250 μL containing: test compound (concentration of 10^−5M to 10^−12M), cell membranes, and 50 pM [^125I]-RTI-55 ([^125I]-3 beta-(4-iodophenyl)tropan-2 beta-carboxylic acid methyl ester) (Perkin Elmer, NEX-272; specific activity 2200 Ci/mmol). The reaction was incubated by gentle agitation for 90 minutes at room temperature and was terminated by filtration through Whatman GF/C filter plates using a Brandel 96-well plate harvester. Scintillation fluid (100 μL) was added to each well, and bound [^125I]-RTI-55 was determined using a Wallac Trilux Beta Plate Counter. Test compounds were run in duplicate, and specific binding was defined as the difference between binding in the presence and absence of 10 μM desipramine.
Excel and GraphPad Prism software were used for data calculation and analysis. IC50 values were converted to Ki values using the Cheng-Prusoff equation. The Ki values (nM) for the hNET are reported below in Table 13.

[2] = target: human serotonin transporter (Homo sapiens, UniProt P31645); assay: Human serotonin (hSERT) receptor binding, [125I]-RTI-55; settings: membranes of HEK-293 cells transfected with human serotonin transporter cDNA, IC50 converted by Cheng-Prusoff
human serotonin transporter, sequence (P31645 whole entry): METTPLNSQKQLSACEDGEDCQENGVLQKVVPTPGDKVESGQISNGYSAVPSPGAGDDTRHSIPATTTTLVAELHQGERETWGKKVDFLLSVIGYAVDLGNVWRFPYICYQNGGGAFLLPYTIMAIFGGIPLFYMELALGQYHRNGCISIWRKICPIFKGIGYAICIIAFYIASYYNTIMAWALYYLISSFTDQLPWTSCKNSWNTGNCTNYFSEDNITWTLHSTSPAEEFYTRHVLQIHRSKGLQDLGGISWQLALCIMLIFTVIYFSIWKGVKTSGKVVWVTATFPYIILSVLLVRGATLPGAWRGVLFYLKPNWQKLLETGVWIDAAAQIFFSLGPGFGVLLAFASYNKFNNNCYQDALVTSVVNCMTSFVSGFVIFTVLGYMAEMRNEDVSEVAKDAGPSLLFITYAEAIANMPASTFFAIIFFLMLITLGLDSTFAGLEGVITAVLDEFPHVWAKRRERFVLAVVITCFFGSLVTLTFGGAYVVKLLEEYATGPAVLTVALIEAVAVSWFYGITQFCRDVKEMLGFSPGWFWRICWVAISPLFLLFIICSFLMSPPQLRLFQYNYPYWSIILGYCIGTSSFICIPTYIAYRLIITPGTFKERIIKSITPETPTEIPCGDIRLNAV
Experimental: Cell pastes of HEK-293 cells transfected with a human serotonin transporter cDNA were prepared. The cell pastes were resuspended in 400 to 700 ml of Krebs-HEPES assay buffer (25 mM HEPES, 122 mM NaCl, 3 mM KCl, 1.2 mM MgSO4, 1.3 mM CaCl2, and 11 mM glucose, pH 7.4) with a Polytron homogenizer at Setting 7 for 30 seconds. Aliquots of membranes (˜2.5 mg/mL protein) were stored in liquid nitrogen until used.
Assays were set up in FlashPlates pre-coated with 0.1% polyethyleneimine (PEI) in a total volume of 250 μL containing: test compound (concentration 10^−5M to 10^−12M), cell membranes, and […] [^125I]-RTI-55 (Perkin Elmer, NEX-272; specific activity 2200 Ci/mmol). The reaction was incubated and gently agitated for 90 minutes at room temperature, and terminated by removal of assay volume. Plates were covered, and bound [^125I]-RTI-55 was determined using a Wallac Trilux Beta Plate Counter. Test compounds were run in duplicate, and specific binding was defined as the difference between binding in the presence and absence of 10 μM citalopram.
Excel and GraphPad Prism software were used for data calculation and analysis. IC50 values were converted to Ki values using the Cheng-Prusoff equation.

human norepinephrine transporter, sequence (P23975 whole entry): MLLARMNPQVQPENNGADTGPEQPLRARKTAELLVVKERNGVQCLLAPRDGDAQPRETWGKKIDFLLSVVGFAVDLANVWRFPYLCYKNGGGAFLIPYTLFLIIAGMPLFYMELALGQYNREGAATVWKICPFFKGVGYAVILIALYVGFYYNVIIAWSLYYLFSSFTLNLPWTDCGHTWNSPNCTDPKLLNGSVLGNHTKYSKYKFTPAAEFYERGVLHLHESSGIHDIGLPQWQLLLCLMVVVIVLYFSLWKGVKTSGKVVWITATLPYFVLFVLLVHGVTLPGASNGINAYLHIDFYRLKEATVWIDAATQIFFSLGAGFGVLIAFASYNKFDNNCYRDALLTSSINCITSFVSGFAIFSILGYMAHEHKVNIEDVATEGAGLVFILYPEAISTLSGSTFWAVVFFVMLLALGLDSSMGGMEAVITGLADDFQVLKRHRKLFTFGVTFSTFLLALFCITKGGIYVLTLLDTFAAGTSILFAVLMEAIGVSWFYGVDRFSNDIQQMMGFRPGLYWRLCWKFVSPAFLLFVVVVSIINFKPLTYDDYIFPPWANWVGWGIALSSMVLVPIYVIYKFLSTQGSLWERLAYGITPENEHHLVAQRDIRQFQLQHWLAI

| melting point | Ki [1] [nM] | Ki [2] [nM] | Compound |
| --- | --- | --- | --- |
| 82 to 88 °C (dec.) | – | – | CCOc1ccccc1OC(c1ccccc1)[C@H]1CCCNC1 (mixture of isomers) (as salt: fumaric acid salt) (hydrate or solvate) [Example 106, (S)-3-[(2-ethoxy-phenoxy)-(R,S)-phenyl-methyl]-piperidine fumaric acid] |
| 191 to 192 °C | – | – | Fc1ccc(Oc2ncccc2OC(c2ccccc2)C2CCCNC2)cc1 (single isomer, unassigned; stereoisomer a) (as salt: fumaric acid salt) (hydrate or solvate) [Example 88, 2-(4-fluoro-phenoxy)-3-[((R or S)-phenyl)-((S)-piperidin-3-yl)-methoxy]-pyridine fumaric acid, stereoisomer A] |
| 159 to 161 °C | – | – | CCOc1ncccc1OC(c1ccccc1)C1CCCNC1 (single isomer, unassigned; stereoisomer a) (as salt: fumaric acid salt) [Example 90, 2-ethoxy-3-[((R or S)-phenyl)-((S)-piperidin-3-yl)-methoxy]-pyridine fumaric acid, stereoisomer A] |
| 150 to 152 °C | – | – | Fc1ccc(Oc2ncccc2OC(c2ccccc2)C2CCCNC2)cc1 (single isomer, unassigned; stereoisomer b) (as salt: fumaric acid salt) [Example 89, 2-(4-fluoro-phenoxy)-3-[((R or S)-phenyl)-((S)-piperidin-3-yl)-methoxy]-pyridine fumaric acid, stereoisomer B] |
| 58 to 68 °C (dec.) | – | – | CCOc1ncccc1OC(c1ccccc1)C1CCCNC1 (single isomer, unassigned; stereoisomer b) (as salt: fumaric acid salt) [Example 91, 2-ethoxy-3-[((R or S)-phenyl)-((S)-piperidin-3-yl)-methoxy]-pyridine fumaric acid, stereoisomer B] |
| 134 to 136 °C | 0.7 | 2300 | Cl.c1ccc(Oc2ccccc2OC[C@H]2CCCNC2)cc1 [Example 43, (S)-3-(2-phenoxy-phenoxymethyl)-piperidine hydrochloride] |
| 128 to 130 °C | 2 | 320 | Fc1ccc(OC[C@H]2CCCNC2)c(Oc2ccccc2)c1.O=C(O)/C=C/C(=O)O [Example 46, (S)-3-(4-fluoro-2-phenoxy-phenoxymethyl)-piperidine fumaric acid] |
| 172 to 173 °C | – | – | Fc1ccc(Oc2ncccc2OC[C@@H]2CCCNC2)cc1.O=C(O)/C=C/C(=O)O [Example 56, (R)-2-(4-fluoro-phenoxy)-3-(piperidin-3-ylmethoxy)-pyridine fumaric acid] |
| 128 to 129 °C | 4 | 6300 | Clc1cccc(Oc2ncccc2OC[C@H]2CCCNC2)c1.O=C(O)/C=C/C(=O)O [Example 59, (S)-2-(3-chloro-phenoxy)-3-(piperidin-3-ylmethoxy)-pyridine fumaric acid] |
| 148 to 150 °C | 2 | 6600 | Fc1ccc(Oc2ncccc2OC[C@H]2CCCNC2)cc1F.O=C(O)/C=C/C(=O)O [Example 60, (S)-2-(3,4-difluoro-phenoxy)-3-(piperidin-3-ylmethoxy)-pyridine fumaric acid] |
| – | 5 | 7500 | c1ccc(Oc2ncccc2OC[C@H]2CCCNC2)cc1 [Example 93, (S)-2-phenoxy-3-(piperidin-3-ylmethoxy)-pyridine fumaric acid] |
| – | 4 | 530 | Cc1ccc(OC[C@H]2CCCNC2)c(Oc2ccccc2)n1 [Example 95, (S)-6-methyl-2-phenoxy-3-(piperidin-3-ylmethoxy)-pyridine fumaric acid] |
| – | 1 | 530 | Fc1ccc(Oc2cccc(F)c2OC[C@H]2CCCNC2)cc1 [Example 96, (S)-3-[2-fluoro-6-(4-fluoro-phenoxy)-phenoxymethyl]-piperidine fumaric acid] |
| – | 1 | 690 | Fc1ccc(Oc2cccc(F)c2OC[C@H]2CCCNC2)cc1F [Example 97, (S)-3-[2-(3,4-difluoro-phenoxy)-6-fluoro-phenoxymethyl]-piperidine fumaric acid] |
| – | 1 | 1300 | Fc1ccc(Oc2c(F)cccc2OC[C@H]2CCCNC2)cc1 [Example 98, (S)-3-[3-fluoro-2-(4-fluoro-phenoxy)-phenoxymethyl]-piperidine trifluoroacetic acid] |
| – | 33 | 2600 | CCOc1ccccc1OC[C@H]1CCCNC1 [Example 100, (S)-3-(2-ethoxy-phenoxymethyl)-piperidine fumaric acid] |
| – | 45 | 1200 | COc1cccc(F)c1OC[C@H]1CCCNC1 [Example 103, (S)-3-(2-fluoro-6-methoxy-phenoxymethyl)-piperidine fumaric acid] |
| – | 32 | 2800 | CCOc1cccc(F)c1OC[C@H]1CCCNC1 [Example 105, (S)-3-(2-ethoxy-6-fluoro-phenoxymethyl)-piperidine fumaric acid] |
| – | 7 | 2700 | CCOc1ccccc1O[C@@H](C)[C@H]1CCCNC1 [Example 107, (S)-3-[(S)-1-(2-ethoxy-phenoxy)-ethyl]-piperidine] |
| – | 3 | 730 | C[C@H](Oc1ccccc1OCc1ccccc1)[C@H]1CCCNC1 [Example 108, (S)-3-[(S)-1-(2-benzyloxy-phenoxy)-ethyl]-piperidine oxalic acid] |
| – | 3 | 420 | C[C@H](Oc1ccccc1OCC1CCC1)[C@H]1CCCNC1 [Example 110, (S)-3-[(S)-1-(2-cyclobutylmethoxy-phenoxy)-ethyl]-piperidine oxalic acid] |
| – | 5 | 1800 | C[C@H](Oc1ccccc1OC1CCCCC1)[C@H]1CCCNC1 [Example 111, (S)-3-[(S)-1-(2-cyclohexyloxy-phenoxy)-ethyl]-piperidine oxalic acid] |
| – | 17 | 3600 | COCCOc1ccccc1O[C@@H](C)[C@H]1CCCNC1 [Example 113, (S)-3-{(S)-1-[2-(2-methoxy-ethoxy)-phenoxy]-ethyl}-piperidine hydrochloride] |
| – | 7 | 3700 | CCOc1ccccc1O[C@@H](c1ccccn1)[C@H]1CCCNC1 [Example 114, 2-[{(R)-2-ethoxy-phenoxy}-(S)-piperidin-3-yl-methyl]-pyridine fumaric acid] |
| – | 4 | 5020 | COc1cccc(F)c1O[C@@H](c1ccccn1)[C@H]1CCCNC1 [Example 115, 2-[{(R)-2-fluoro-6-methoxy-phenoxy}-(S)-piperidin-3-yl-methyl]-pyridine fumaric acid] |
| – | 3 | 3700 | FC(F)(F)Oc1ccccc1O[C@@H](c1ccccn1)[C@H]1CCCNC1 [Example 116, 2-[(S)-piperidin-3-yl-{(R)-2-trifluoromethoxy-phenoxy}-methyl]-pyridine fumaric acid] |
| – | 16 | 4600 | COc1ccc(F)cc1O[C@@H](c1ccccn1)[C@H]1CCCNC1 [Example 117, 2-[{(R)-5-fluoro-2-methoxy-phenoxy}-(S)-piperidin-3-yl-methyl]-pyridine fumaric acid] |
| – | 38 | 2500 | COCCOc1ccccc1OC(C)(C)[C@H]1CCCNC1 [Example 118, (S)-3-{1-[2-(2-methoxy-ethoxy)-phenoxy]-1-methyl-ethyl}-piperidine fumaric acid] |

| Compound | melting point | Ki [1] [nM] | Ki [2] [nM] |
| --- | --- | --- | --- |
| CC(C)COc1ccccc1O[C@@H](C)[C@H]1CCCNC1 [Example 109, (S)-3-[(S)-1-(2-isobutoxy-phenoxy)-ethyl]-piperidine] | – | 3 | 1200 |
| CC(C)CCOc1ccccc1O[C@@H](C)[C@H]1CCCNC1 [Example 112, (S)-3-{(S)-1-[2-(3-methyl-butoxy)-phenoxy]-ethyl}-piperidine oxalic acid] | – | 16 | 790 |
